According to patent US20130045484A1, “METHODS AND KITS FOR DETERMINING THE TOXICITY OF AN AGENT” (priority 2010, published 2013):
Counter-ions that a name gives are not always drawn. Like-named read-outs stand apart in the source and are kept apart here.

Experiments:
[1] = tested on: p53R2 (RE)
Experimental: Constructs were transiently transfected into human HEK 293 cells using a lipid-based commercially available reagent (FuGENE HD Transfection Reagent, Roche Applied Science). Transfections were carried out following the manufacturer's instructions. Briefly, freshly passaged cells (20,000/well) were dispensed into Greiner Bio-One tissue-culture treated μ-clear (clear base), white, sterile, 96-well cluster plates and incubated overnight (37° C., 95% humidity, 5% CO2) in antibiotic-free media. Cells were transfected (100 ng DNA/well; 5 μl transfection complex/well) with pGL4.70 [hRLuc], p53R2 (RE) pGL4.70 [hRLuc], pGL4.70 MinP [hRLuc], or p53R2 (RE) pGL4.70 MinP [hRLuc] for 24 h, in antibiotic-free media. Several FuGENE HD Transfection Reagent: DNA ratios (3:2-8:2 in the final complex) were evaluated in order to determine the optimal level of transient transfection.
Renilla luciferase activity was measured using the ViviRen Luciferase Live Cell Substrate following the Manufacturer's instructions. Briefly, the ViviRen substrate (60 mM; 20 μl) was diluted 1:50 with complete EMEM at room temperature. 10 μl was added to each culture well (to give a final concentration of 60 μM in each well containing cells to be tested). Microtitre plates were incubated for two minutes at room temperature before measuring luminescence on a Tecan Ultra (Tecan Corporation) in luminescence mode, integrating for 100 ms. Alternatively luminescence can be measured on a LEADseeker multi-modality instrument in luminescence mode (GE Healthcare).

[2] = tested on: superoxide dismutase; test: Superoxide Dismutase (SOD) (Oxidative Stress) Assay; type: cell-based, human; settings: mean superoxide dismutase response (450 nm) ÷ mean ATP response × 10^7; HEK 293; mannitol 1 mg/ml, doxorubicin 1 μg/ml, MMS 50 μg/ml, phenformin 250 μg/ml
Experimental: The assay was conducted using the same cell containing sample(s) as the p53R2 Renilla Luciferase Reporter Gene and the Firefly Luciferase Bioluminescent ATP assays. The assays were performed in 96-well cluster plates.
On completion of ATP quantification, SOD was measured on each cellular sample following the SOD assay kit manufacturer's instructions. Briefly, the assay method is based on a water-soluble tetrazolium salt, WST-1 (2-(4-Iodophenyl)-3-(4-nitrophenyl)-5-(2,4-disulfophenyl)-2H-tetrazolium, monosodium salt) that produces a colourimetric formazan dye upon reduction with a superoxide anion which can be measured spectrophotometrically. The rate of the reduction with the superoxide anion is linearly related to […] xanthine oxidase (XO) activity. Thus, cellular samples (20 μl) were added to a reaction mixture (220 μl) containing WST-1 and XO and incubated for 20 mins at 37° C. Absorbance was measured at 450 nm using a 96-well microtitre plate reader.

[3] = tested on: caspase-3; test: Caspase-3 (apoptosis) Assay; type: cell-based, human; settings: for Mean Apoptotic Index: mean Caspase-3 response (405 nm) ÷ mean ATP response × 10^8, mannitol 1 mg/ml, doxorubicin 1 μg/ml, MMS 50 μg/ml, phenformin 250 μg/ml
Experimental: The assay was carried out using the same cell containing sample(s) as the p53R2 Renilla Luciferase Reporter Gene, the Firefly Luciferase Bioluminescent ATP and the superoxide assays. Once again, all of the assays were performed in 96-well cluster plates. Activation of caspase-3 plays a central role in the execution-phase of apoptosis. Thus, the caspase-3 assay will provide useful information on the mechanism of cellular toxicity. Following SOD measurement, caspase-3 was measured on each cellular sample in accordance with the Caspase-3 Assay Kit manufacturer's instructions. Briefly, the colorimetric assay is based on the hydrolysis of the peptide substrate acetyl-Asp-Glu-Val-Asp p-nitroanilide (Ac-DEVD-pNA) by caspase-3, resulting in the release of the p-nitroaniline (pNA) moiety which can be measured at 405 nm.
For the assay, cellular sample lysates (5 μl) were added to a reaction mixture containing caspase-3 substrate (Ac-DEVD-pNA, 95 μl) and samples were incubated for 2 h at 37° C. Absorbance was measured at 405 nm using a 96-well microtitre plate reader.

[4] = tested on: HEK 293 cells; test: Firefly Luciferase Bioluminescent ATP cell viability assay; type: cell-based, human; settings: for ATP response (cytotoxicity): phenformin 250 μg/ml, MMS 50 μg/ml, doxorubicin 1 μg/ml
Experimental: The assay was carried out in 96-well cluster plates on the same cell containing sample(s) as the p53R2 Renilla Luciferase Reporter Gene Assay. Traditionally bioluminescent ATP quantification methods use firefly luciferase to quantify ATP in the presence of inorganic magnesium ions and the substrate luciferin. The ATP assay described here uses a recombinant luciferase from a gene isolated from the Pennsylvania Firefly (Photuris pennsylvania). Following Renilla luciferase gene reporter activity quantification, firefly luciferase activity was measured in each well using the Cell-Titer Glo Luciferase ATP Quantification Assay Kit in accordance with the kit manufacturer's instructions. Briefly, the enzyme substrate was equilibrated to room temperature and reconstituted with the assay buffer. 100 μl of this reagent was added to cells which quenched the Renilla luciferase reaction and liberated the cellular contents by cellular lysis. […] It is based on the quantitative measurement of ATP which indicates the absolute number of metabolically active cells.

[5] = tested on: Salmonella; settings: McCann et al., 1975, PNAS 72, 5135-5139; cited from earlier work
[6] = FIG. 16, apoptosis values alone, HEK 293

Structure (SMILES)	induction of Renilla luciferase [1]	Mean Stress Index [2]	Mean Apoptotic Index ([3]; HEK 293)	caspase 3 activities [3, 6]	ATP response (cytotoxicity) ([4]; FIG. 10e, 8:2 transfection)	ATP response (cytotoxicity) ([4]; FIG. 11e, 7:2 transfection)	cytotoxicity based upon ATP levels ([4]; FIGS. 10 and 11)	genotoxicity characterization [5]	caspase 3 activities [3]	cytotoxicity based upon ATP levels [4]
OC[C@@H](O)[C@@H](O)[C@H](O)[C@H](O)CO [Mannitol, mannitol]	no induction	1.22	1.04	–	–	–	–	–	–	–
[H]/N=C(/N)N/C(=N/[H])NCCc1ccccc1 [Phenformin, phenformin hydrochloride]	no induction	–	–	comparable	–	–	–	–	–	–
COc1cccc2c1C(=O)c1c(O)c3c(c(O)c1C2=O)C[C@@](O)(C(=O)CO)C[C@@H]3O[C@H]1C[C@H](N)[C@H](O)[C@H](C)O1 [Doxorubicin, doxorubicin hydrochloride]	significant induction	0.96	3.43	comparable	no reduction	no reduction	not cytotoxic	highly	–	–
COS(C)(=O)=O [Methylmethane sulfonate, methylmethane sulfonate]	less induction	–	–	–	–	–	–	moderately	comparable	not cytotoxic
